From paper PMC7855930, “Nontoxic Cobalt(III) Schiff Base Complexes with Broad‐Spectrum Antifungal Activity” (Chemistry (Weinheim an Der Bergstrasse, Germany), 2020)
In brackets after ≈: the same amount, converted by molar mass. Where two headings read alike, the source gives them in different places. Starred links: 1 amine or outer side, 2 acyl side, 3 side chain; linkers in the order of their positions; H or OH if unused. Positions of bridges follow the written chain, without caps; N, C: chain ends. Non-standard residues stand in square brackets, D forms with d. Residues, ends and D or L forms follow the SMILES beside them. *: point of attachment. hTyr(3S-OH,4S-OH,3'-OSO3H) = N[C@H](C(=O)O)[C@H](O)[C@@H](O)c1ccc(O)c(OS(=O)(=O)O)c1; Orn(4R-OH,5R-OH) = O=C([C@H](C[C@@H](O)[C@@H](O)N[*:3])N[*:1])[*:2]; Pro(3S-OH,4S-Me) = C[C@H]1CN[C@H](C(=O)O)[C@H]1O; X1 = CCCCCOc1ccc(-c2cc(-c3ccc(C(=O)*)cc3)no2)cc1; Gln(3R-OH) = NC(=O)C[C@@H](O)[C@H](N)C(=O)O; Hyp = O=C(O)[C@@H]1C[C@@H](O)CN1

Experiments:
[1] = system: C. albicans ATCC 90028; test: Antifungal MIC assay (broth microdilution in YNB); type: cell-based, Candida albicans; conditions: Candida albicans
Excerpt: (§1) Yeast strains: Candida albicans (ATCC 90028, NCCLS 11), Cryptococcus neoformans (ATCC 208821, H99 type strain), Candida tropicalis (ATCC 750, type strain), Candida glabrata (ATCC 90030, NCCLS 84) and Cryptococcus deuterogattii (ATCC 32609, type strain) were obtained from the American Type Culture Collection (ATCC). Cryptococcus deuterogattii (CBS 7750), Candida auris (CBS 10913) and Candida auris (CBS 12373) were obtained from the CBS‐KNAW culture collection. The strains were maintained on glycerol/YPD (yeast extract‐peptone dextrose) broth (20:80 v/v) at −80 °C.
(§2) Antifungal minimum inhibitory concentration (MIC) assay: The cobalt complexes and antifungal control compounds were serially diluted in 50 μL of Yeast Nitrogen Broth (YNB; BD, Cat No. 233520 supplemented with 2 % glucose and 10 mM ammonium sulfate) two‐fold across the wells of non‐binding surface (NBS) 96‐well plates (Corning; Cat. No. 3641). Plates were set up in quadruplicate for each strain tested, and two biological replicates were conducted on separate assay days.
(§3) Yeast strains were cultured from glycerol onto YPD (Becton Dickinson 242720) agar at 30 °C for 72 h. For each strain, a minimum of five single colonies were taken from the agar plate and dissolved in sterile water and adjusted to form a yeast suspension of 1×10^6 to 5×10^6 CFU mL^−1 (as determined by OD530). The suspension was subsequently diluted into YNB media, and added to each well of the compound containing plates, giving a final cell density of 2.5×10^3 CFU mL^−1 and a total volume of 100 μL. Plates were covered and incubated at 35 °C for 36 h without shaking.
(§4) Growth inhibition of all strains was determined visually where the MIC was recorded as the lowest compound concentration with no visible growth. Fluconazole (Sigma F8929), ketoconazole (Sigma K1003) and micafungin (Sigma SML2288) were used as internal positive inhibitor controls for every strain tested.

[2] = system: C. auris CBS 10913; test: Antifungal MIC assay (broth microdilution in YNB); type: cell-based, Candida auris; conditions: Candidozyma auris
Excerpt: as §1, §2, §3, §4

[3] = system: C. auris CBS 12373; test: Antifungal MIC assay (broth microdilution in YNB); type: cell-based, Candida auris; conditions: Candidozyma auris
Excerpt: as §1, §2, §3, §4

[4] = system: C. glabrata ATCC 90030; test: Antifungal MIC assay (broth microdilution in YNB); type: cell-based, Candida glabrata; conditions: Nakaseomyces glabratus
Excerpt: as §1, §2, §3, §4

[5] = system: C. tropicalis ATCC 750; test: Antifungal MIC assay (broth microdilution in YNB); type: cell-based, Candida tropicalis; conditions: Candida tropicalis
Excerpt: as §1, §2, §3, §4

[6] = system: C. deuterogattii ATCC 32609; test: Antifungal MIC assay (broth microdilution in YNB); type: cell-based, Cryptococcus deuterogattii; conditions: Cryptococcus deuterogattii
Excerpt: as §1, §2, §3, §4

[7] = system: C. deuterogattii CBS 7750; test: Antifungal MIC assay (broth microdilution in YNB); type: cell-based, Cryptococcus deuterogattii; conditions: Cryptococcus deuterogattii
Excerpt: as §1, §2, §3, §4

[8] = system: C. neoformans ATCC 208821; test: Antifungal MIC assay (broth microdilution in YNB); type: cell-based, Cryptococcus neoformans; conditions: Cryptococcus neoformans
Excerpt: as §1, §2, §3, §4

[9] = system: Staphylococcus aureus ATCC 43300 (MRSA); test: CO-ADD bacterial broth microdilution MIC assay; type: cell-based; conditions: Staphylococcus aureus, 18 h, read-out: MIC Sa (Staphylococcus aureus ATCC 43300, MRSA)
Protocol: (§5) CO-ADD High Throughput Screening
(§6) Bacterial broth microdilution minimum inhibitory concentration (MIC) assay Bacterial strains were cultured in Cation-adjusted Mueller Hinton broth (CAMHB; Bacto Laboratories 212322) at 37 °C overnight. A sample of each culture was then diluted 40-fold in fresh CAMHB and incubated at 37 °C for 1.5-3 h. The resultant mid-log phase cultures were diluted with CAMHB (CFU/mL measured by OD600), then added to each well of the compound-containing plates (384-well non-binding surface (NBS) plates; Corning CLS3640), giving a cell density of 5 × 10^5 CFU/mL and a total volume of 50 µL. Plates were covered and incubated at 37 °C for 18 h without shaking. Inhibition of bacterial growth was determined measuring absorbance at 600 nm (OD600), using media only as negative control and bacteria without inhibitors as positive control. MIC values were determined as the lowest concentration at which the growth was inhibited at ≥ 80%. Colistin sulfate (Sigma C4461) and vancomycin HCl (Sigma 861987) were used as positive inhibitor controls on each plate for Gram-negative and Gram-positive bacteria, respectively.
(§7) Figure S1. 1H NMR (400 MHz) of [Co(ATS)(DMAP)2]NO3 (3) in DMSO-d6.
(§8) (1 picture or pasted object on this page, not shown here)

[10] = system: Acinetobacter baumannii ATCC 19606; test: CO-ADD bacterial broth microdilution MIC assay; type: cell-based; conditions: CAMHB, 37 °C, 18 h, ≥ 80% inhibition
Protocol: as §5, §6, §7, §8

[11] = system: Escherichia coli ATCC 25922; test: CO-ADD bacterial broth microdilution MIC assay; type: cell-based; conditions: CAMHB, 37 °C, 18 h, ≥ 80% inhibition
Protocol: as §5, §6, §7, §8

[12] = system: Pseudomonas aeruginosa ATCC 27853; test: CO-ADD bacterial broth microdilution MIC assay; type: cell-based; conditions: CAMHB, 37 °C, 18 h, ≥ 80% inhibition
Protocol: as §5, §6, §7, §8

[13] = system: Klebsiella pneumoniae ATCC 700603 (K6; ESBL SHV-18); type: cell-based; conditions: CAMHB, 37 °C, 18 h, ≥ 80% inhibition
Protocol: as §5, §6, §7, §8

[14] = ATCC90028, Table S1, read-out: MIC Candida albicans ATCC 90028
[15] = ATCC90028, range of MICs, n=8, 35 °C, 36 h, visual, read-out: MIC C. albicans ATCC 90028
[16] = CBS10913, Table S1, read-out: MIC Candida auris CBS 10913
[17] = CBS10913, range of MICs, n=8, 35 °C, 36 h, visual, read-out: MIC C. auris CBS 10913
[18] = CBS12373, Table S1, read-out: MIC Candida auris CBS 12373
[19] = CBS12373, range of MICs, n=8, 35 °C, 36 h, visual, read-out: MIC C. auris CBS 12373
[20] = ATCC90030, Table S1, read-out: MIC Candida glabrata ATCC 90030
[21] = ATCC90030, range of MICs, n=8, 35 °C, 36 h, visual, read-out: MIC C. glabrata ATCC 90030
[22] = ATCC750, Table S1, read-out: MIC Candida tropicalis ATCC 750
[23] = ATCC750, range of MICs, n=8, 35 °C, 36 h, visual, read-out: MIC C. tropicalis ATCC 750
[24] = ATCC32609, Table S1, read-out: MIC Cryptococcus deuterogattii ATCC 32609
[25] = ATCC32609, range of MICs, n=8, 35 °C, 36 h, visual, read-out: MIC C. deuterogattii ATCC 32609
[26] = CBS7750, Table S1, read-out: MIC Cryptococcus deuterogattii CBS 7750
[27] = CBS7750, range of MICs, n=8, 35 °C, 36 h, visual, read-out: MIC C. deuterogattii CBS 7750
[28] = ATCC208821, Table S1, read-out: MIC Cryptococcus neoformans ATCC 208821
[29] = ATCC208821, range of MICs, n=8, 35 °C, 36 h, visual, read-out: MIC C. neoformans ATCC 208821

| Compound | MIC [1, 14] | MIC [1, 15] | MIC [2, 16] | MIC [2, 17] | MIC [3, 18] | MIC [3, 19] | MIC [4, 20] | MIC [4, 21] | MIC [5, 22] | MIC [5, 23] | MIC [6, 24] | MIC [6, 25] | MIC [7, 26] | MIC [7, 27] | MIC [8, 28] | MIC [8, 29] | other results |
| --- | --- | --- | --- | --- | --- | --- | --- | --- | --- | --- | --- | --- | --- | --- | --- | --- | --- |
| OC(Cn1cncn1)(Cn1cncn1)c1ccc(F)cc1F [FCZ, Fluconazole, reference compound] | 2 µg/mL | 6.53 µM | 16 µg/mL | 52.2 µM | > 64 µg/mL | > 209 µM | > 64 µg/mL | > 209 µM | > 64 µg/mL | > 209 µM | 8 to 16 µg/mL | 26.1 to 52.2 µM | 8 µg/mL | 26.1 µM | 16 µg/mL | 52.2 µM |  |
| CC(=O)N1CCN(c2ccc(OCC3COC(Cn4ccnc4)(c4ccc(Cl)cc4Cl)O3)cc2)CC1 (stereo not shown) [KCZ, Ketoconazole, reference compound] | 0.5 µg/mL | ≤ 0.94 µM | 0.5 µg/mL | ≤ 0.94 µM | 2 µg/mL | 3.76 µM | 32 µg/mL | 60.2 µM | 16 µg/mL | 30.1 µM | 1 µg/mL | 1.88 µM | 0.5 to 1 µg/mL | 0.94 to 1.88 µM | 1 to 2 µg/mL | 1.88 to 3.76 µM |  |
| CCCCCOc1ccc(-c2cc(-c3ccc(C(=O)N[C@H]4C[C@@H](O)[C@@H](O)NC(=O)[C@@H]5[C@@H](O)[C@@H](C)CN5C(=O)[C@H]([C@H](O)CC(N)=O)NC(=O)[C@H]([C@H](O)[C@@H](O)c5ccc(O)c(OS(=O)(=O)O)c5)NC(=O)[C@@H]5C[C@@H](O)CN5C(=O)[C@H]([C@@H](C)O)NC4=O)cc3)no2)cc1 [MFG, Micafungin, reference compound] (X1-[Orn(4R-OH,5R-OH)]T[Hyp][hTyr(3S-OH,4S-OH,3'-OSO3H)][Gln(3R-OH)][Pro(3S-OH,4S-Me)]; lactam 1-C) |  |  |  |  |  |  |  |  |  |  |  |  |  |  |  |  | MIC ([1]; ATCC90028, 36 h, read-out: MIC C. albicans ATCC 90028): ≤ 0.39 µM; MIC ([1]; ATCC90028, read-out: MIC Candida albicans ATCC 90028): 0.5 µg/mL; MIC ([2]; CBS10913, 36 h, read-out: MIC C. auris CBS 10913): ≤ 0.39 µM; MIC ([3]; CBS12373, 36 h, read-out: MIC C. auris CBS 12373): ≤ 0.39 µM; MIC ([3]; CBS12373, read-out: MIC Candida auris CBS 12373): 0.5 µg/mL; MIC ([4]; ATCC90030, 36 h, read-out: MIC C. glabrata ATCC 90030): ≤ 0.39 µM; MIC ([4]; ATCC90030, read-out: MIC Candida glabrata ATCC 90030): 0.5 µg/mL; MIC ([5]; ATCC750, 36 h, read-out: MIC C. tropicalis ATCC 750): ≤ 0.39 µM; MIC ([5]; ATCC750, read-out: MIC Candida tropicalis ATCC 750): 0.5 µg/mL; MIC ([6]; ATCC32609, 36 h, read-out: MIC C. deuterogattii ATCC 32609): > 49.5 µM; MIC ([6]; ATCC32609, read-out: MIC Cryptococcus deuterogattii ATCC 32609): > 64 µg/mL; MIC ([7]; CBS7750, 36 h, read-out: MIC C. deuterogattii CBS 7750): > 49.5 µM; MIC ([7]; CBS7750, read-out: MIC Cryptococcus deuterogattii CBS 7750): > 64 µg/mL; MIC ([8]; ATCC208821, 36 h, read-out: MIC C. neoformans ATCC 208821): > 49.5 µM; MIC ([8]; ATCC208821, read-out: MIC Cryptococcus neoformans ATCC 208821): > 64 µg/mL |
| CN[C@H](CC(C)C)C(=O)N[C@H]1C(=O)N[C@@H](CC(N)=O)C(=O)N[C@H]2C(=O)N[C@H]3C(=O)N[C@H](C(=O)N[C@H](C(=O)O)c4cc(O)cc(O)c4-c4cc3ccc4O)[C@H](O)c3ccc(c(Cl)c3)Oc3cc2cc(c3O[C@@H]2O[C@H](CO)[C@@H](O)[C@H](O)[C@H]2O[C@H]2C[C@](C)(N)[C@H](O)[C@H](C)O2)Oc2ccc(cc2Cl)[C@H]1O [Van, Vancomycin, reference compound] |  |  |  |  |  |  |  |  |  |  |  |  |  |  |  |  | MIC [9]: 1 µg/mL (≈ 0.69 µM) |
| Colistin [reference compound] |  |  |  |  |  |  |  |  |  |  |  |  |  |  |  |  | MIC Ab (Acinetobacter baumannii ATCC 19606) [10]: 0.25 µg/mL; MIC Ec (Escherichia coli ATCC 25922) [11]: 0.125 µg/mL; MIC Pa (Pseudomonas aeruginosa ATCC 27853) [12]: 0.25 µg/mL; MIC Kp (Klebsiella pneumoniae ATCC 700603) [13]: 0.25 µg/mL |
